Assay results from patent US10149472B2, “Chitin oligomers for use in promoting non-leguminous plant growth and development” (Wisconsin Alumni Research Foundation, priority 2015, dated 2018).

Assays:
rice = experiment: Root architecture modification in wild-type rice after submersion treatment; type: in vivo, Oryza sativa cv Nipponbare; conditions: 10^−8M, 24 hours submersion, assessed after two weeks, FIG. 3
Procedure: (§1) Oryza sativa cv Nipponbare wild-type and Tos17 insertion lines in POLLUX (line NC6453) and DMI3 were used for root architecture experiments (12, 13). Seeds were prepared by sterilizing with 2% bleach for 20 minutes, followed by 3, 5-minute rinses with sterile water. The sterile seeds were then imbibed overnight. Seeds were then plated on damp germination paper in Petri plates under sterile conditions and germinated in the dark at 25 degrees for 7 days. Germinated rice plants were then plated on Fahraeus medium on germination paper and grown at 22 degrees under constant light. After 5 days the plants were treated with 10^−8M LCOs and COs for 24 hours by submersion and re-plated onto Fåhræus Medium 1.5% agar plates (0.132 g/L CaCl2, 0.12 g/L MgSO4.7H2O, 0.1 g/L KH2PO4, 0.075 g/L Na2HPO4.2H2O, 5 mg/L Fe-citrate, and 0.07 mg/L each of MnCl2.4H2O, CuSO4.5H2O, ZnCl2, H3BO3, and Na2MoO4.2H2O, adjusted to pH 6.5 before autoclaving). As all signals were suspended in 50% ethanol, the appropriate concentration of ethanol in sterile DI water served as a control. Root system architecture was assessed after 2 weeks.
(§2) Total lateral roots of rice were enumerated manually two weeks after application of 10^−8M COs and LCOs. As COs and LCOs were suspended in 50% ethanol, the control is sterile deionized water containing the appropriate amount of ethanol. Lateral roots were defined as large and fine lateral roots emerging from crown roots, as well as fine lateral roots emerging from large lateral roots. Root system length was measured starting from the root-shoot junction to the tip of the longest root. The number of crown roots was assessed manually as those roots emerging from the root-shoot junction. Root type characterizations were based upon the descriptions in Gutjahr et al. (19). Data were assessed for normality using the Shapiro-Wilk test (α=0.01), and statistical significance was determined using a paired t-test assuming unequal variances, or a Mann-Whitney-Wilcoxon Test if normality was not observed (α=0.05). All statistical analysis was conducted using the R software package (20).

[1] = tested on: rice knock-out mutants of pollux and dmi3; experiment: Root architecture modification in rice Ospollux and Osdmi3 mutants; type: in vivo, Oryza sativa cv Nipponbare; conditions: 10^−8M; Ospollux and Osdmi3 mutants vs wild-type; FIG. 4
Procedure: as §1
as §2, with “Lateral roots were defined as large and fine lateral roots emerging from crown roots, as well as fine lateral roots emerging from large lateral roots.” left out, “Root type characterizations were based upon the descriptions in Gutjahr et al. (19).” left out, “All statistical analysis was conducted using the R software package (20).” left out
To assess the role of the common symbiotic pathway in regulating root architecture modifications in response to purified LCOs and COs, we quantified root responses to mycorrhizal signals in rice knock-out mutants of pollux (upstream of calcium spiking) and dmi3 (downstream of calcium spiking).

[2] = tested on: rice trichoblasts (root hair cells); experiment: Calcium spiking (YC3.6 imaging) in rice trichoblasts (root hair cells); type: cell-based, Oryza sativa cv Nipponbare; conditions: 10^−5 M, FIG. 5, FIG. 6
Procedure: Mycorrhizal induced calcium responses were measured as described previously (14). Transgenic Oryza sativa Nipponbare lines carrying Yellow Cameleon 3.6 (YC3.6) FRET-based calcium sensor was used to detect calcium spiking. YC3.6 was imaged on a Nikon Eclipse Ti inverted microscope (Nikon, Japan) equipped with an OptoLED Illuminator (model OptoLED, Cairn Research Ltd, UK). YC3.6 was excited at a wavelength of 455 nm using a royal blue LED and was captured with a charge-coupled device (CCD) camera (model RETIGA-SRV, Qimaging, Canada). Emitted fluorescence was separated by an image splitter with a dichroic mirror (model Optosplit II, Cairn Research Ltd, UK) and then passed through a fluorescence filter set. Images were collected every 5 seconds with 1-second exposure and analyzed using MetaFluor (Molecular Devices, Sunnyvale, Calif., USA).
Both LCOs and COs are Required to Induce Calcium Spiking in Trichoblasts. Rhizobia colonize legumes by root hair cells (trichoblasts), whereas AM fungi colonize roots via non-root hair epidermal cells (atrichoblasts). Thus, these different root epidermal cell types may respond differently to COs and LCOs. To test this, we directly compared trichoblast and atrichoblast responses using high concentrations of CO4 in rice. Calcium oscillations observed in rice following treatments of CO4 were restricted to atrichoblasts, with no responses in trichoblasts even with CO4 treatments of 10^−5 M (FIG. 5). This preferential nature of rice atrichoblasts to respond to the AM signals is consistent with a preference for AM fungi to colonize the root via atrichoblasts (26). It is possible that either AM fungi produce signalling molecules other than S-LCO, NS-LCO and CO4 that induce calcium oscillations in rice trichoblasts, or that the mix of signalling molecules is important. To test this, we assessed induction of calcium oscillations by an equimolar mix of 10^−5 M S-LCO, NS-LCO, and CO4.

M. truncatula = experiment: Lateral root emergence in M. truncatula; type: in vivo, Medicago truncatula; conditions: 10^−7 M; fold induction relative to the control; FIG. 7
Procedure: M. truncatula roots were treated with 10^−7 M CO4 or 10^−7 M NS-LCO and the effect on lateral root emergence was measured. The numbers in parentheses indicate the number of plants analyzed. The significance of the difference to the […] control plants, as measured using a t-test, is indicated. The treatments are measured as fold induction relative to the control. Error bars represent the standard error.
Accordingly, the disclosed method is limited in scope to treating non-leguminous plants, or seeds, seedlings or plant parts thereof.

Substance	crown root growth (rice)	lateral root growth (rice)	root system length (rice)	dependence of overall root length increase on POLLUX / DMI3 [1]	calcium spiking in trichoblasts [2]	lateral root emergence (M. truncatula)
LCO-IV (C16:0 or C18:1) [NS-LCO]	promoted	promoted	enhanced	dependent upon both POLLUX and DMI3	did not induce calcium spiking	promotion
LCO-IV (C16:0, S or C18:1, S) [S-LCO]	promoted	promoted	–	–	did not induce calcium spiking	–
